Source: PubChem BioAssay AID206 (DTP/NCI, 2004)
Results filed as inconclusive are left out.

Tested on: nude mice, HT29 intrarenal xenograft, tumor weight T/C
Test: NCI In Vivo Anticancer Drug Screen. Data for tumor model HT29;CX-1 Human Adenocarcinoma (MER+) (intrarenal inoculation) in NU/NU Swiss (nude) mice
Conditions: endpoint: mean tumor weight change, higher = larger tumour
Method in brief: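 T/C = treated-group value ÷ vehicle-group value, using tumor size or survival.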

[1] = dose: 400.0 mg/kg/injection, schedule: Q04DX004 (sc), vehicle: saline
[2] = dose: 300.0 mg/kg/injection, schedule: Q04DX004 (sc), vehicle: saline with Tween-80
[3] = dose: 600.0 mg/kg/injection, schedule: Q04DX004 (sc), vehicle: saline with Tween-80

## NC(=O)CC(N)C(=O)O (centres undefined)
[1]
  T/C: 151 % of control
dose: 800.0 mg/kg/injection, schedule: Q04DX004 (sc), vehicle: saline
  T/C: 119 % of control
dose: 3200.0 mg/kg/injection, schedule: Q04DX004 (sc), vehicle: saline
  T/C: 90 % of control

## COc1ccc(C[C@H](N)C(=O)NC2C(CO)OC(n3cnc4c(N(C)C)ncnc43)C2O)cc1 (some centres undefined)
dose: 100.0 mg/kg/injection, schedule: Q04DX004 (sc), vehicle: saline
  T/C: 174 % of control
dose: 200.0 mg/kg/injection, schedule: Q04DX004 (sc), vehicle: saline
  T/C: 96 % of control
[1]
  T/C: 185 % of control

## O=C(Nc1ccccc1C(=O)O)c1cc([N+](=O)[O-])cc([N+](=O)[O-])c1
dose: 50.0 mg/kg/injection, schedule: Q04DX004 (sc), vehicle: saline with Tween-80
  T/C: 91 % of control
dose: 100.0 mg/kg/injection, schedule: Q04DX004 (sc), vehicle: saline with Tween-80
  T/C: 120 % of control
dose: 200.0 mg/kg/injection, schedule: Q04DX004 (sc), vehicle: saline with Tween-80
  T/C: 119 % of control

## O=C(O)CSc1nc(-c2ccccc2)c(-c2ccccc2)n1-c1ccccn1
dose: 250.0 mg/kg/injection, schedule: Q04DX004 (sc), vehicle: water
  T/C: 55 % of control

## Cc1c2cc[n+](CCN3CCCCC3)cc2c(C)c2c1[nH]c1ccc(O)cc12
dose: 12.5 mg/kg/injection, schedule: Q04DX004 (sc), vehicle: suspension in saline
  T/C: 100 % of control
dose: 25.0 mg/kg/injection, schedule: Q04DX004 (sc), vehicle: suspension in saline
  T/C: 108 % of control
dose: 50.0 mg/kg/injection, schedule: Q04DX004 (sc), vehicle: suspension in saline
  T/C: 98 % of control

## Cn1cnc([N+](=O)[O-])c1SCC(=O)O
dose: 300.0 mg/kg/injection, schedule: Q04DX004 (sc), vehicle: saline
  T/C: 89 % of control
dose: 600.0 mg/kg/injection, schedule: Q04DX004 (sc), vehicle: saline
  T/C: 83 % of control
dose: 1200.0 mg/kg/injection, schedule: Q04DX004 (sc), vehicle: saline
  T/C: 66 % of control
dose: 2400.0 mg/kg/injection, schedule: Q04DX004 (sc), vehicle: saline
  T/C: 77 % of control

## O=Cc1c(O)c2ccccc2[nH]c1=O
[2]
  T/C: 79 % of control
[3]
  T/C: 98 % of control
dose: 1200.0 mg/kg/injection, schedule: Q04DX004 (sc), vehicle: saline with Tween-80
  T/C: 65 % of control

## C(=N/NC1=NCCN1)/c1c2ccccc2c(/C=N\NC2=NCCN2)c2ccccc12
dose: 18.75 mg/kg/injection, schedule: Q04DX004 (sc), vehicle: saline
  T/C: 83 % of control
dose: 37.5 mg/kg/injection, schedule: Q04DX004 (sc), vehicle: saline
  T/C: 105 % of control
dose: 75.0 mg/kg/injection, schedule: Q04DX004 (sc), vehicle: saline
  T/C: 75 % of control

## C1CCC2C[N-]CCC2C1.C1CCC2C[N-]CCC2C1.C1CCC2C[N-]CCC2C1.C1CCC2C[N-]CCC2C1.[Cl][Rh][Cl] (centres undefined)
dose: 9.0 mg/kg/injection, schedule: Q04DX004 (sc), vehicle: saline with Tween-80
  T/C: 96 % of control
dose: 18.0 mg/kg/injection, schedule: Q04DX004 (sc), vehicle: saline with Tween-80
  T/C: 82 % of control
dose: 36.0 mg/kg/injection, schedule: Q04DX004 (sc), vehicle: saline with Tween-80
  T/C: 84 % of control
dose: 72.0 mg/kg/injection, schedule: Q04DX004 (sc), vehicle: saline with Tween-80
  T/C: 73 % of control

## Cc1c2ccc3ccccc3c2c[n+]2ccccc12
dose: 3.75 mg/kg/injection, schedule: Q04DX004 (sc), vehicle: Klucel (hydroxypropylcellulose) (HPC)
  T/C: 84 % of control
dose: 7.5 mg/kg/injection, schedule: Q04DX004 (sc), vehicle: Klucel (hydroxypropylcellulose) (HPC)
  T/C: 66 % of control
dose: 15.0 mg/kg/injection, schedule: Q04DX004 (sc), vehicle: Klucel (hydroxypropylcellulose) (HPC)
  T/C: 50 % of control
dose: 30.0 mg/kg/injection, schedule: Q04DX004 (sc), vehicle: Klucel (hydroxypropylcellulose) (HPC)
  T/C: 41 % of control

## CO[C@@]12[C@H](COC(N)=O)C3=C(C(=O)C(C)=C(N)C3=O)N1C[C@@H]1N[C@@H]12
dose: 0.63 mg/kg/injection, schedule: Q04DX004 (sc), vehicle: saline
  T/C: 71 % of control
dose: 1.5 mg/kg/injection, schedule: Q04DX004 (sc), vehicle: saline
  T/C: 10 % of control
dose: 2.0 mg/kg/injection, schedule: Q04DX004 (ip), vehicle: saline
  T/C: 29 % of control
dose: 3.0 mg/kg/injection, schedule: Q04DX003 (sc), vehicle: saline
  T/C: 13 % of control
dose: 3.0 mg/kg/injection, schedule: Q04DX004 (ip), vehicle: saline
  T/C: 8 % of control
dose: 3.0 mg/kg/injection, schedule: Q04DX004 (sc), vehicle: saline
  T/C: -59 % of control
dose: 4.5 mg/kg/injection, schedule: Q04DX004 (ip), vehicle: saline
  T/C: -82 % of control
dose: 6.0 mg/kg/injection, schedule: Q04DX003 (sc), vehicle: saline
  T/C: -37 % of control

## COc1ccc([I+]c2cccc(Cl)c2)cc1Cl
dose: 37.5 mg/kg/injection, schedule: Q04DX004 (sc), vehicle: saline with Tween-80
  T/C: 67 % of control
dose: 75.0 mg/kg/injection, schedule: Q04DX004 (sc), vehicle: saline with Tween-80
  T/C: 48 % of control
dose: 150.0 mg/kg/injection, schedule: Q04DX004 (sc), vehicle: saline with Tween-80
  T/C: 58 % of control
[2]
  T/C: 39 % of control
[3]
  T/C: 64 % of control
